Biological target: T1, Androgen Receptor (Homo sapiens, UniProt P10275+P40337, T878A)
T1 construct: Compounds have been evaluated in this assay in LNCaP and/or VCaP cells utilizing similar protocols; endogenous in cells; host or cells: LNCaP cells
Test: Androgen Receptor ELISA assay (PathScan AR ELISA) in LNCaP cells: AR degradation, Dmax and DC50
Assay type: cell-based
Settings: for DC50: concentration that caused 50% Androgen Receptor degradation; for Dmax: highest percentage of Androgen Receptor degradation observed

T1 sequence (P10275 whole entry T878A): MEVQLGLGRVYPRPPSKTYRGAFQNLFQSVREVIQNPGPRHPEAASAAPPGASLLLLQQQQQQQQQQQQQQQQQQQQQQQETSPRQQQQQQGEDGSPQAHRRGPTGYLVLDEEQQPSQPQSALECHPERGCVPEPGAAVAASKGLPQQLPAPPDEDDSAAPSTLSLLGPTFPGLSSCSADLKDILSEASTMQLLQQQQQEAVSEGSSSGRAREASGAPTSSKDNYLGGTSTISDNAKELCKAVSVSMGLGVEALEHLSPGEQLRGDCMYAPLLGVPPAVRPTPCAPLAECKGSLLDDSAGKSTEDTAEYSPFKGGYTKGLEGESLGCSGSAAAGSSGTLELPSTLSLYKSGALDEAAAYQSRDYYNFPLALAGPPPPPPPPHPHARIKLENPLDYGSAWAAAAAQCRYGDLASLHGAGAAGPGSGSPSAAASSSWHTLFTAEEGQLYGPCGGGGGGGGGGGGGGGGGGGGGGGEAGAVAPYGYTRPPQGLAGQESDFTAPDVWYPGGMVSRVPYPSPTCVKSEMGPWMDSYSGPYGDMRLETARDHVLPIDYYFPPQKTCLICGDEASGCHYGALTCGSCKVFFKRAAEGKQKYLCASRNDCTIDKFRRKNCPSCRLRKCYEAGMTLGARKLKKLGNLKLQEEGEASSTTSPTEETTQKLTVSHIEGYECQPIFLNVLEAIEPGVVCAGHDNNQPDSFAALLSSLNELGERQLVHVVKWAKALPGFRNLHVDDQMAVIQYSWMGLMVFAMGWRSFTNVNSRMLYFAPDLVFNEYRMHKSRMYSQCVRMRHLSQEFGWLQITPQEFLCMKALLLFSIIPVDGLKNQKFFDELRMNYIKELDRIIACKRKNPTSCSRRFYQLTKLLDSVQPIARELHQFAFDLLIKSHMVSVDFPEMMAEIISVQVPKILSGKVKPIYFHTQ
T1 sequence (P40337 whole entry): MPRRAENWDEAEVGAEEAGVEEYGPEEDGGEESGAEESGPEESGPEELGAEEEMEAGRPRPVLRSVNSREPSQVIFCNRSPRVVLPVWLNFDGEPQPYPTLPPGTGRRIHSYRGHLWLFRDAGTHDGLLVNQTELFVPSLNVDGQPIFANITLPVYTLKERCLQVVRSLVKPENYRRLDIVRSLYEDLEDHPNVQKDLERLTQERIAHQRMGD
T1 sequence (Q15369 whole entry partner): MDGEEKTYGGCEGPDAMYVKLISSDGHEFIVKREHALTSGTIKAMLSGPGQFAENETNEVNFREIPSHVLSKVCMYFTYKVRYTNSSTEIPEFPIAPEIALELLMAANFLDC
T1 sequence (Q15370 whole entry partner): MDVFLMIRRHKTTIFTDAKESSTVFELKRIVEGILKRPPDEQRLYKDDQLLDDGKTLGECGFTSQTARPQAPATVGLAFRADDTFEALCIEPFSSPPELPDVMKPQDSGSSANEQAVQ

SMILES | DC50 [nM] | Dmax [%]
Cc1cc(N2C(=O)C(C)(C)N(c3ccc(OCCCCCOCCCOCC(=O)N[C@H](C(=O)N4C[C@H](O)C[C@H]4C(=O)NCc4ccc(-c5scnc5C)cc4)C(C)(C)C)cc3)C2=S)ccc1C#N [Example 6, (2S,4R)-1-[(2S)-2-(2-{3-[(5-{4-[3-(4-cyano-3-methylphenyl)-5,5-dimethyl-4-oxo-2-sulfanylideneimidazolidin-1-yl]phenoxy}pentyl)oxy]propoxy}acetamido)-3,3-dimethylbutanoyl]-4-hydroxy-N-{[4-(4-methyl-1,3-diiazol-5-yl)phenyl]methyl}pyrrolidine-2-carboxamid] | < 50 | > 71
Cc1ncsc1-c1ccc(CNC(=O)[C@@H]2C[C@@H](O)CN2C(=O)[C@@H](NC(=O)COCCCOCCCCCOc2ccc(N3C(=S)N(c4ccc(C#N)c(F)c4)C(=O)C3(C)C)cc2)C(C)(C)C)cc1 [Example 7] | < 50 | 51 to 70
COc1cc(N2C(=O)C(C)(C)N(c3ccc(OCCCCCOCCCOCC(=O)N[C@H](C(=O)N4C[C@H](O)C[C@H]4C(=O)NCc4ccc(-c5scnc5C)cc4)C(C)(C)C)cc3)C2=S)ccc1C#N [Example 9, (2S,4R)-1-[(2S)-2-(2-{3-[(5-{4-[3-(4-cyano-3-methoxyphenyl)-5,5-dimethyl-4-oxo-2-sulfanylideneimidazolidin-1-yl]phenoxy}pentyl)oxy]propoxy}acetamido)-3,3-dimethylbutanoyl]-4-hydroxy-N-{[4-(4-methyl-1,3-thiazol-5-yl)phenyl]methyl}pyrrolidine-2-carboxamide] | < 50 | > 71
Cc1ncsc1-c1ccc(CNC(=O)[C@@H]2C[C@@H](O)CN2C(=O)[C@@H](NC(=O)COCCOCCOCCOc2ccc(N3C(=O)N(c4ccc(C#N)c(C(F)(F)F)c4)C(=O)C3(C)C)cc2)C(C)(C)C)cc1 [Example 17, (2S,4R)-1-[(2S)-2-[2-(2-{2-[2-(4-{3-[4-cyano-3-(trifluoromethyl)phenyl]-5,5-dimethyl-2,4-dioxoimidazolidin-1-yl}phenoxy)ethoxy]ethoxy}ethoxy)acetamido]-3,3-dimethylbutanoyl]-4-hydroxy-N-{[4-(4-methyl-1,3-thiazol-5-yl)phenyl]methyl}pyrrolidine-2-carboxamide] | 51 to 500 | 26 to 50
Cc1ncsc1-c1ccc(CNC(=O)[C@@H]2C[C@@H](O)CN2C(=O)[C@@H](NC(=O)COCCOCCOCCOc2ccc(N3C(=S)N(c4ccc(C#N)c(C(F)(F)F)c4)C(=O)C3(C)C)cc2F)C(C)(C)C)cc1 [Example 18, (2S,4R)-1-[(2S)-2-[2-(2-{2-[2-(4-{3-[4-cyano-3-(trifluoromethyl)phenyl]-5,5-dimethyl-4-oxo-2-sulfanylideneimidazolidin-1-yl}-2-fluorophenoxy)ethoxy]ethoxy}ethoxy)acetamido]-3,3-dimethylbutanoyl]-4-hydroxy-N-{[4-(4-methyl-1,3-thiazol-5-yl)phenyl]methyl}pyrrolidine-2-carboxamide] | 51 to 500 | 51 to 70
Cc1ncsc1-c1ccc(CNC(=O)[C@@H]2C[C@@H](O)CN2C(=O)[C@@H](NC(=O)COCCOCCOCCOc2ccc(N3C(=S)N(c4ccc([N+](=O)[O-])c(C(F)(F)F)c4)C(=O)C3(C)C)cc2)C(C)(C)C)cc1 [Example 19, (2S,4R)-1-[(2S)-2-[2-(2-{2-[2-(4-{5,5-dimethyl-3-[4-nitro-3-(trifluoromethyl)phenyl]-4-oxo-2-sulfanylideneimidazolidin-1-yl}phenoxy)ethoxy]ethoxy}ethoxy)acetamido]-3,3-dimethylbutanoyl]-4-hydroxy-N-{[4-(4-methyl-1,3-thiazol-5-yl)phenyl]methyl}pyrrolidine-2-carboxamide] | < 50 | 51 to 70
Cc1ncsc1-c1ccc([C@H](C)NC(=O)[C@@H]2C[C@@H](O)CN2C(=O)[C@@H](NC(=O)COCCOCCOCCOc2ccc(N3C(=S)N(c4ccc(C#N)c(C(F)(F)F)c4)C(=O)C3(C)C)cc2)C(C)(C)C)cc1 [Example 20, (2S,4R)-1-[(2S)-2-[2-(2-{2-[2-(4-{3-[4-cyano-3-(trifluoromethyl)phenyl]-5,5-dimethyl-4-oxo-2-sulfanylideneimidazolidin-1-yl}phenoxy)ethoxy]ethoxy}ethoxy)acetamido]-3,3-dimethylbutanoyl]-4-hydroxy-N-[(1S)-1-[4-(4-methyl-1,3-thiazol-5-yl)phenyl]ethyl]pyrrolidine-2-carboxamide] | 51 to 500 | > 71
Cc1ncsc1-c1ccc(CNC(=O)[C@@H]2C[C@@H](O)CN2C(=O)[C@@H](NC(=O)COCCOCCOCCOc2ccc(N3C(=S)N(c4cnc(C#N)c(C(F)(F)F)c4)C(=O)C3(C)C)cc2)C(C)(C)C)cc1 [Example 21, (2S,4R)-1-[(2S)-2-[2-(2-{2-[2-(4-{3-[6-cyano-5-(trifluoromethyl)pyridin-3-yl]-5,5-dimethyl-4-oxo-2-sulfanylideneimidazolidin-1-yl}phenoxy)ethoxy]ethoxy}ethoxy)acetamido]-3,3-dimethylbutanoyl]-4-hydroxy-N-{[4-(4-methyl-1,3-thiazol-5-yl)phenyl]methyl}pyrrolidine-2-carboxamide] |  | 26 to 50
Cc1ncsc1-c1ccc(CNC(=O)[C@@H]2C[C@@H](O)CN2C(=O)[C@@H](NC(=O)COCCO[C@H](C)[C@@H](C)OCCOc2ccc(N3C(=S)N(c4ccc(C#N)c(C(F)(F)F)c4)C(=O)C3(C)C)cc2)C(C)(C)C)cc1 [Example 23, (2S,4R)-1-[(2S)-2-[2-(2-{[(2R,3R)-3-[2-(4-{3-[4-cyano-3-(trifluoromethyl)phenyl]-5,5-dimethyl-4-oxo-2-sulfanylideneimidazolidin-1-yl}phenoxy)ethoxy]butan-2-yl]oxy}ethoxy)acetamido]-3,3-dimethylbutanoyl]-4-hydroxy-N-{[4-(4-methyl-1,3-thiazol-5-yl)phenyl]methyl}pyrrolidine-2-carboxamide] | 51 to 500 | > 71
Cc1ncsc1-c1ccc(CNC(=O)[C@@H]2C[C@@H](O)CN2C(=O)[C@@H](NC(=O)COCCCCOCCCCOc2ccc(N3C(=S)N(c4ccc(C#N)c(C(F)(F)F)c4)C(=O)C3(C)C)cc2)C(C)(C)C)cc1 [Example 24, (2S,4R)-1-[(2S)-2-(2-{4-[4-(4-{3-[4-cyano-3-(trifluoromethyl)phenyl]-5,5-dimethyl-4-oxo-2-sulfanylideneimidazolidin-1-yl}phenoxy)butoxy]butoxy}acetamido)-3,3-dimethylbutanoyl]-4-hydroxy-N-{[4-(4-methyl-1,3-thiazol-5-yl)phenyl]methyl}pyrrolidine-2-carboxamide] | < 50 | > 71
Cc1ncsc1-c1ccc(CNC(=O)[C@@H]2C[C@@H](O)CN2C(=O)[C@@H](NC(=O)COCCOCCNC(=O)CCCc2ccc(N3C(=S)N(c4ccc(C#N)c(C(F)(F)F)c4)C(=O)C3(C)C)cc2)C(C)(C)C)cc1 [Example 62, (2S,4R)-1-((S)-2-tert-butyl-16-(4-(3-(4-cyano-3-(trifluoromethyl)phenyl)-5,5-dimethyl-4-oxo-2-thioxoimidazolidin-1-yl)phenyl)-4,13-dioxo-6,9-dioxa-3,12-diazahexadecane)-4-hydroxy-N-(4-(4-methylthiazol-5-yl)benzyl)pyrrolidine-2-carboxamide] | > 501 | 51 to 70
Cc1ncsc1-c1ccc(CNC(=O)[C@@H]2C[C@@H](O)CN2C(=O)[C@@H](NC(=O)COCCOCCN(C)C(=O)CCCc2ccc(N3C(=S)N(c4ccc(C#N)c(C(F)(F)F)c4)C(=O)C3(C)C)cc2)C(C)(C)C)cc1 [Example 64, (2S,4R)-1-[(2S)-2-[2-(2-{2-[4-(4-{3-[4-cyano-3-(trifluoromethyl)phenyl]-5,5-dimethyl-4-oxo-2-sulfanylideneimidazolidin-1-yl}phenyl)-N-methylbutanamido]ethoxy}ethoxy)acetamido]-3,3-dimethylbutanoyl]-4-hydroxy-N-{[4-(4-methyl-1,3-thiazol-5-yl)phenyl]methyl}pyrrolidine-2-carboxamide] | 51 to 500 | 51 to 70
Cc1ncsc1-c1ccc(CNC(=O)[C@@H]2C[C@@H](O)CN2C(=O)[C@@H](NC(=O)CCOCCOCCOc2ccc(-c3ccc(N4C(=S)N(c5ccc(C#N)c(C(F)(F)F)c5)C(=O)C4(C)C)cc3)cc2)C(C)(C)C)cc1 [Example 68, (2S,4R)-1-[(2S)-2-[3-(2-{2-[4-(4-{3-[4-cyano-3-(trifluoromethyl)phenyl]-5,5-dimethyl-4-oxo-2-sulfanylideneimidazolidin-1-yl}phenyl)phenoxy]ethoxy}ethoxy)propanamido]-3,3-dimethylbutanoyl]-4-hydroxy-N-{[4-(4-methyl-1,3-thiazol-5-yl)phenyl]methyl}pyrrolidine-2-carboxamide] | 51 to 500 | 26 to 50
Cc1ncsc1-c1ccc(CNC(=O)[C@@H]2C[C@@H](O)CN2C(=O)[C@@H](NC(=O)CCOCCCCCOc2ccc(-c3ccc(N4C(=S)N(c5ccc(C#N)c(C(F)(F)F)c5)C(=O)C4(C)C)cc3)cc2)C(C)(C)C)cc1 [Example 72, (2S,4R)-1-[(2S)-2-[3-({5-[4-(4-{3-[4-cyano-3-(trifluoromethyl)phenyl]-5,5-dimethyl-4-oxo-2-sulfanylideneimidazolidin-1-yl}phenyl)phenoxy]pentyl}oxy)propanamido]-3,3-dimethylbutanoyl]-4-hydroxy-N-{[4-(4-methyl-1,3-thiazol-5-yl)phenyl]methyl}pyrrolidine-2-carboxamide] | 51 to 500 | > 71
Cc1ncsc1-c1ccc(CNC(=O)[C@@H]2C[C@@H](O)CN2C(=O)[C@@H](NC(=O)OCCOCCOc2ccc(-c3ccc(N4C(=S)N(c5ccc(C#N)c(C(F)(F)F)c5)C(=O)C4(C)C)cc3F)cc2)C(C)(C)C)cc1 [Example 76, 2-{2-[4-(4-{3-[4-cyano-3-(trifluoromethyl)phenyl]-5,5-dimethyl-4-oxo-2-sulfanylideneimidazolidin-1-yl}-2-fluorophenyl)phenoxy]ethoxy}ethyl N-[(2S)-1-[(2S,4R )-4-hydroxy-2-({[4-(4-methy1-1,3-thiazol-5-yl)phenyl]methyl}carbamoyl)pyrrolidin-l-yl]-3,3-dimethyl-1-oxobutan-2-yl]carhamate] | < 50 | 51 to 70

Source: patent publication US11427548B2 (Arvinas Operations, Inc., priority 2015, dated 2022)
